# Assay results from patent US11897862B2 (Gilead Sciences, Inc., priority 2022, dated 2024).
# Legend:
# Assay type in all cases: cell-based
# IKZF1 = molecular target: T1, IKZF1 (Homo sapiens, UniProt Q13422+Q96SW2); test: HEK293 HiBiT in vitro degradation of IKZF1; conditions: for Dmax: HEK293, HEK293 HiBiT; for Dmax / IKZF1 Dmax: maximum degradation at the highest concentration tested; for DC50 / IKZF1 Dmax: HEK293 HiBiT; for DC50: 18-24 hr incubation, normalized to DMSO control, read-out: IKZF1 EC50
# T1 construct: expressed in transfected cells
# T1 sequence (Q13422 whole entry): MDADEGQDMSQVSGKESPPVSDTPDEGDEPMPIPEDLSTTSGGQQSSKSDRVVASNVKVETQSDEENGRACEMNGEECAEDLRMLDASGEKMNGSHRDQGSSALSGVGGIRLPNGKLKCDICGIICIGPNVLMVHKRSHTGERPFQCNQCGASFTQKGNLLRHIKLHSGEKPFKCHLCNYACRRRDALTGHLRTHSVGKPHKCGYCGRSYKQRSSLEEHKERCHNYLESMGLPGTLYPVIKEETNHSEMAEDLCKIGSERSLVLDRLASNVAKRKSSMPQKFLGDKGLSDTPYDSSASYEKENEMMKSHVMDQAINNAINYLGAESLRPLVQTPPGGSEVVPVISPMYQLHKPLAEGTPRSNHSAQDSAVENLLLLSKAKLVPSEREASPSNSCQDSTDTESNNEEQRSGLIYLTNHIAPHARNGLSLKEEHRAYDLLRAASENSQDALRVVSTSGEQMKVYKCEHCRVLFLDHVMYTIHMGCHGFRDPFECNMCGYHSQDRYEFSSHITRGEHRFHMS
# T1 sequence (Q96SW2 whole entry): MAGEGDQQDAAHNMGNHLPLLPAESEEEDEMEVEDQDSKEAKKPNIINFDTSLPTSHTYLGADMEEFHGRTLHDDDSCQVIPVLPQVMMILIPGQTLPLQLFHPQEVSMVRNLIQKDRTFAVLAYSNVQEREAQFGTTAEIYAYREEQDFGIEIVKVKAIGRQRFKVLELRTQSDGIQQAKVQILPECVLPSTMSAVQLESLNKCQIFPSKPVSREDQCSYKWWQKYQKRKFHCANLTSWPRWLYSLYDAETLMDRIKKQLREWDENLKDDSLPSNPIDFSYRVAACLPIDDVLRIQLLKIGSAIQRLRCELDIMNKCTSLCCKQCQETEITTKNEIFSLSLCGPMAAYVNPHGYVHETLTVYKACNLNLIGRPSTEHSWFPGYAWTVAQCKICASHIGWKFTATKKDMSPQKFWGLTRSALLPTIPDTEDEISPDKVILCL
# T1 sequence (Q16531 whole entry partner): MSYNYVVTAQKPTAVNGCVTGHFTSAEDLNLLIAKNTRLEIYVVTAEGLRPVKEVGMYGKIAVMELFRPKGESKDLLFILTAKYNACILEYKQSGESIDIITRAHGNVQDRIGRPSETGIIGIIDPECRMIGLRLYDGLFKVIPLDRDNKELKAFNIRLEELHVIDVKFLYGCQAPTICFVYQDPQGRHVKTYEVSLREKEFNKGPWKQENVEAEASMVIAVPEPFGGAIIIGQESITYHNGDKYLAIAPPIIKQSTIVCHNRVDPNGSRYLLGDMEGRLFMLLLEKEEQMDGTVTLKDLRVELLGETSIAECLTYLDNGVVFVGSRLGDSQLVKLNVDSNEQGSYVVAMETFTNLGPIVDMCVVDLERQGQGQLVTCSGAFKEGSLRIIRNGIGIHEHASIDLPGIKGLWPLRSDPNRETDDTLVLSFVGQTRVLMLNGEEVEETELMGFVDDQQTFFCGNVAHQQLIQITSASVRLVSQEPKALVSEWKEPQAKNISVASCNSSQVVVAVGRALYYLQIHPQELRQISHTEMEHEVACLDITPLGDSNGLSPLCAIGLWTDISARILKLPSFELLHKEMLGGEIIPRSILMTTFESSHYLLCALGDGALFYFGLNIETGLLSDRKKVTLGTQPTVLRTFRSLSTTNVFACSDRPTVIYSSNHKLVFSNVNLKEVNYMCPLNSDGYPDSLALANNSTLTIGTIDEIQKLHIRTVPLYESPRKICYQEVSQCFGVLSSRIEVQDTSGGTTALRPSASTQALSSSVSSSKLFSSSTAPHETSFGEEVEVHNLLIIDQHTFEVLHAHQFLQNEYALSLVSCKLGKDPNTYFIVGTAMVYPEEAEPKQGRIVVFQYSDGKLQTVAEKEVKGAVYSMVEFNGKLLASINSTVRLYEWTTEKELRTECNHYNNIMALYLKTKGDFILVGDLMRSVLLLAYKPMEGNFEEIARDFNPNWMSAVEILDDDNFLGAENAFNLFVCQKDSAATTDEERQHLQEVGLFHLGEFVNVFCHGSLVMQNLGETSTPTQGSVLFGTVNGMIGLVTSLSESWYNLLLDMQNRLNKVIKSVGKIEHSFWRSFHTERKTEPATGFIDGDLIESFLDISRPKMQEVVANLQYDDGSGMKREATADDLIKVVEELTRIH
# Outline: (§1)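 Flp-In T-REx HEK293 pools stably expressing C-terminal HiBiT-tagged IKZF1, IKZF2 or SALL4 (single-copy, Tet-On), induced overnight with […] doxycycline. Cells exposed to serially diluted compounds for 18-24 hr at 37° C. Nano-Glo lytic luminescence gave EC50 and Dmax.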
# IKZF2 [1] = molecular target: T2, IKZF2 (Homo sapiens, UniProt Q96SW2+Q9UKS7); test: Human whole blood IKZF2 degradation (flow cytometry, CD4/CD25/Foxp3+ Treg cells); design: endogenous in cells; conditions: 24 hrs incubation, IKZF2 MFI in CD4/CD25/Foxp3+ Treg cells, flow cytometry; for DC50: read-out: IKZF2 EC50
# Procedure: In vitro IKZF2 potency was assessed in human whole blood using a fluorescence activated cell sorting assay. 50 μL of freshly collected blood from healthy human volunteers was incubated with Immunocult CD3/CD28 activator (Stemcell Technologies) and solution of testing compounds (serially-diluted) for 24 hrs hours at 37° C. in 384 well plates. The treated red blood cells were removed by adding lysis buffer (BD cat #558049) then the cells were fixed, permeabilized, and stained with anti-CD4 (BD cat #564419), anti-Foxp3 (Invitrogen cat #48-4777-42), anti-IKZF1 (Cell Signaling Tech. cat #33462S), and anti-IKZF2(Cell Signaling Tech. cat #65432S) antibodies. The median fluorescent intensity (MFI) of IKZF2 signal from CD4/CD25/Foxp3+ Treg cells and MFI of IKZF1 signal from CD4+ T cells were quantified in the same samples by flow cytometry using an Attune instrument. EC50 and Dmax of each compound was determined by plotting the MFI and DMSO treated wells were used as control. Asterisks (*) indicate examples for which data represents an average of n≥3 repeat experiments.
# Target sequence in this assay (Q9UKS7 whole entry): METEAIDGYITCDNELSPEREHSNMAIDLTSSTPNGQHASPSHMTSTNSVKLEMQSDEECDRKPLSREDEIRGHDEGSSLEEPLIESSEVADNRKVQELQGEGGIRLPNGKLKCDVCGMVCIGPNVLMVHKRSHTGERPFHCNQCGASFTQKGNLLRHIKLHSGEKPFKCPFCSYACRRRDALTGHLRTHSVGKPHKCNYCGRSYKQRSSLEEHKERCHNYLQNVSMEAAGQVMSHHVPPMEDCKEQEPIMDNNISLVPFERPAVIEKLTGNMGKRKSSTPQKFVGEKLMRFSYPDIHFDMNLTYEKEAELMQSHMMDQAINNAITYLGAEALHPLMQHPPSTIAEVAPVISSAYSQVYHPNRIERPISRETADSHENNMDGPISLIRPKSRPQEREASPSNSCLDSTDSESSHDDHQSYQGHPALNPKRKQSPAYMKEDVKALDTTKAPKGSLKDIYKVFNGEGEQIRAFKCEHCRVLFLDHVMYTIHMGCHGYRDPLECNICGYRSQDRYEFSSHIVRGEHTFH
# Target sequence in this assay (Q96SW2 whole entry): as the sequence (Q96SW2 whole entry) above
# Target sequence in this assay (Q16531 whole entry partner): as the sequence (Q16531 whole entry partner) above
# IKZF2 [2] = molecular target: T2, IKZF2; test: HEK293 HiBiT in vitro degradation of IKZF2; design: expressed in transfected cells; conditions: for Dmax: HEK293, HEK293 HiBiT; for Dmax / IKZF2 Dmax: maximum degradation at the highest concentration tested; for DC50 / IKZF2 Dmax: HEK293 HiBiT; for DC50: 18-24 hr incubation, normalized to DMSO control, read-out: IKZF2 EC50
# Outline: as §1
# Target sequence in this assay (Q9UKS7 1-500 isoform Q9UKS7-2): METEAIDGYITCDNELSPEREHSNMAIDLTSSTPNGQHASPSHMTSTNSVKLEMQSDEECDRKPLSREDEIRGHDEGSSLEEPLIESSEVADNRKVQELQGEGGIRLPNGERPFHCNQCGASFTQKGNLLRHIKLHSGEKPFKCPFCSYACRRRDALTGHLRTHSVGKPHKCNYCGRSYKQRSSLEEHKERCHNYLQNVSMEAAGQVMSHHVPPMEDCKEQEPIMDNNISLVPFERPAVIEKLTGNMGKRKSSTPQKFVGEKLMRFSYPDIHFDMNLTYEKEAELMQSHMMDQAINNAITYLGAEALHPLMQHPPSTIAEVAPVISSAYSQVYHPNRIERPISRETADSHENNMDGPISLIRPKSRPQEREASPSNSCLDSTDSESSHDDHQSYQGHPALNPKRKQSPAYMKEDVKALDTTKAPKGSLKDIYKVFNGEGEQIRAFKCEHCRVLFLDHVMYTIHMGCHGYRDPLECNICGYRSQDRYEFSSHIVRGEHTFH
# Target sequence in this assay (Q96SW2 whole entry): as the sequence (Q96SW2 whole entry) above
# Target sequence in this assay (Q16531 whole entry partner): as the sequence (Q16531 whole entry partner) above
Structure (SMILES),Dmax (IKZF1) [%],DC50 (IKZF1) [nM],Dmax (IKZF2 [1]) [%],DC50 (IKZF2 [1]) [nM],Dmax (IKZF2 [2]) [%],DC50 (IKZF2 [2]) [nM],IKZF1 Dmax (IKZF1) [%],IKZF2 Dmax (IKZF2 [2]) [%],IKZF2 Dmax (IKZF2 [1]) [%]
"O=C1CCC(N2Cc3cc(C[C@H]4CCCC[C@@H]4NC4CCC5(CC4)CC5)ccc3C2=O)C(=O)N1 (stereo partly drawn) [Example 28, 3-(1-oxo-5-(((1R,2S)-2-(spiro[2.5]octan-6-ylamino)cyclohexyl)methyl)isoindolin-2-yl)piperidine-2,6-dione]",56,327,99,3,97,2,,,
O=C1CCC(N2Cc3c(ccc(C[C@H]4OCCC[C@@H]4NC4CCCC4)c3F)C2=O)C(=O)N1 (stereo partly shown) [Example 148],,> 1000,92,6,94,7,,,
O=C1CCC(N2Cc3cc(C[C@H]4CCCC[C@@H]4NC4CCOCC4)ccc3C2=O)C(=O)N1 (stereo partly shown) [Example 74],55,226,93,3,96,4,,,
"CCC(CC)N[C@H]1CCCC[C@@H]1Cc1ccc2c(c1)CN(C1CCC(=O)NC1=O)C2=O (stereo partly drawn) [Example 23, 3-(1-oxo-5-(((1R,2S)-2-(pentan-3-ylamino)cyclohexyl)methyl)isoindolin-2-yl)piperidine-2,6-dione]",14,374,98,6,95,6,,,
"O=C1CCC(N2Cc3cc(C[C@H]4CCCC[C@@H]4NC4CCCC4)ccc3C2=O)C(=O)N1 (stereo partly drawn) [Example 52, 3-(5-(((1R,2S)-2-(cyclopentylamino)cyclohexyl)methyl)-1-oxoisoindolin-2-yl)piperidine-2,6-dione]",,> 1000,95,5,96,6,,,
O=C1CCC(N2Cc3cc(C[C@H]4CCCC[C@@H]4NCC45CC(C4)C5)ccc3C2=O)C(=O)N1 (stereo partly shown) [Example 63],,> 1000,91,19,89,19,,,
O=C1CCC(N2Cc3cc(C[C@H]4CCCC[C@@H]4NC4CC5(CCC(F)(F)CC5)C4)ccc3C2=O)C(=O)N1 (stereo partly shown) [Example 142],33,74,94,5,95,5,,,
"O=C1CCC(N2Cc3cc(C[C@H]4CCCC[C@@H]4NCC4CC(F)(F)C4)ccc3C2=O)C(=O)N1 (stereo partly drawn) [Example 24, 3-(5-(((1R,2S)-2-(((3,3-difluorocyclobutyl)methyl)amino)cyclohexyl)methyl)-1-oxoisoindolin-2-yl)piperidine-2,6-dione]",25,345,89,8,91,10,,,
COC1CCC(N[C@H]2CCCO[C@@H]2Cc2ccc3c(c2F)CN(C2CCC(=O)NC2=O)C3=O)CC1 (stereo partly shown) [Example 159],,> 1000,94,5,100,6,,,
"CC(C)N[C@H]1CCCC[C@@H]1Cc1ccc2c(c1)CN(C1CCC(=O)NC1=O)C2=O (stereo partly drawn) [Example 7, 3-(5-(((1R,2S)-2-(isopropylamino)cyclohexyl)methyl)-1-oxoisoindolin-2-yl)piperidine-2,6-dione]",36,462,98,2,99,4,,,
CC(N[C@H]1CCCC[C@@H]1Cc1ccc2c(c1)CN(C1CCC(=O)NC1=O)C2=O)C12CC(C1)C2 (stereo partly shown) [Example 138],,> 1000,96,3,98,4,,,
"O=C1CCC(N2Cc3cc(C[C@H]4CCCC[C@@H]4NC4CCC(C(F)(F)F)CC4)ccc3C2=O)C(=O)N1 (single isomer, unassigned) [Example 122]",,57,97,2,,2,45,96,
C[C@]1(O)CC[C@H](NC2CCC(F)(F)CC2)[C@@H](Cc2ccc3c(c2)CN(C2CCC(=O)NC2=O)C3=O)C1 (stereo partly shown) [Example 155],27,226,91,12,97,30,,,
O=C1CCC(N2Cc3c(ccc(C[C@H]4CCCC[C@@H]4NC4CCOC4)c3F)C2=O)C(=O)N1 (stereo partly shown) [Example 117],46,39,92,1,97,2,,,
O=C1CCC(N2Cc3c(ccc(C[C@H]4CCCC[C@@H]4NCC4COC4)c3F)C2=O)C(=O)N1 (stereo partly shown) [Example 114],28,88,98,5,98,8,,,
O=C1CCC(N2Cc3c(ccc(C[C@H]4CCCC[C@@H]4NCC4CCOCC4)c3F)C2=O)C(=O)N1 (stereo partly shown) [Example 115],37,78,90,6,96,8,,,
CC(N[C@H]1CCCC[C@@H]1Cc1ccc2c(c1)CN(C1CCC(=O)NC1=O)C2=O)C1CCC1 (stereo partly shown) [Example 103],,> 1000,96,4,95,3,,,
CC1(C)CC(N[C@H]2CCCC[C@@H]2Cc2ccc3c(c2)CN(C2CCC(=O)NC2=O)C3=O)CC(C)(C)O1 (stereo partly shown) [Example 208],26,76,97,3,98,2,,,

# Second part, the molecule after the results:
Dmax (IKZF1) [%],DC50 (IKZF1) [nM],Dmax (IKZF2 [1]) [%],DC50 (IKZF2 [1]) [nM],Dmax (IKZF2 [2]) [%],DC50 (IKZF2 [2]) [nM],IKZF1 Dmax (IKZF1) [%],IKZF2 Dmax (IKZF2 [2]) [%],IKZF2 Dmax (IKZF2 [1]) [%],Structure (SMILES)
,> 1000,96,2,98,2,,,,"CCC(C)N[C@H]1CCCC[C@@H]1Cc1ccc2c(c1)CN(C1CCC(=O)NC1=O)C2=O (single isomer, unassigned) [Example 299]"
,40,97,2,,1,54,98,,"O=C1CCC(N2Cc3cc(C[C@H]4CCCC[C@@H]4NC4CCC5(CC4)CC5(F)F)ccc3C2=O)C(=O)N1 (single isomer, unassigned) [Example 272]"
,> 1000,,4,,2,,98,101,CC(CC(C)(C)C)N[C@H]1CCCC[C@@H]1Cc1ccc2c(c1)CN(C1CCC(=O)NC1=O)C2=O (stereo partly shown) [Example 221]
,> 1000,95,4,97,5,,,,"CC(N[C@H]1CCCO[C@@H]1Cc1ccc2c(c1F)CN(C1CCC(=O)NC1=O)C2=O)C1CCC1 (single isomer, unassigned) [Example 247]"
37,114,95,2,98,3,,,,"COC1CCC(N[C@H]2CCCC[C@@H]2Cc2ccc3c(c2)CN(C2CCC(=O)NC2=O)C3=O)CC1 (single isomer, unassigned) [Example 277]"
30,43,98,5,96,2,,,,"O=C1CCC(N2Cc3cc(C[C@H]4CCCC[C@@H]4NC4CCC5(CC5)C4)ccc3C2=O)C(=O)N1 (single isomer, unassigned) [Example 281]"
,> 1000,98,3,,2,,96,,CC(CC(C)(C)C)N[C@H]1CCCC[C@@H]1Cc1ccc2c(c1)CN(C1CCC(=O)NC1=O)C2=O (stereo partly shown) [Example 220]
,> 1000,,10,,6,,95,97,CC(N[C@H]1CCCC[C@@H]1Cc1ccc2c(c1)CN(C1CCC(=O)NC1=O)C2=O)C1CCC1 (stereo partly shown) [Example 219]
32,55,98,6,97,4,,,,"O=C1CCC(N2Cc3cc(C[C@H]4CCCC[C@@H]4NC4CC5CC5C4)ccc3C2=O)C(=O)N1 (single isomer, unassigned) [Example 266]"
30,117,100,4,,2,,97,,"CC(CC(F)(F)F)N[C@H]1CCCC[C@@H]1Cc1ccc2c(c1)CN(C1CCC(=O)NC1=O)C2=O (single isomer, unassigned) [Example 250]"
